From US6414037B1 (Pharmascience, priority 1998, dated 2002)

Tested on: C3H/10T1/2 clone 8 cells
Test: Two-stage transformation assay in C3H10T1/2 cells
Type: cell-based, mouse
Conditions: DMBA (0.25 μg/ml), TPA (0.1 μg/ml)
Procedure: This 10T1/2 cell line of mouse embryo fibroblasts has been widely used as an experimental system to study neoplastic transformation induced by a variety of agents, such as polycyclic hydrocarbons, methylating agents, and X-rays. Two-stage transformation assays, with 3-methylcholanthrene (MCA) or DMBA as inducer and TPA as promoter, were performed in these tests.
C3H10T1/2 Cl 8 cells were purchased from the American Type Culture Collection (ATCC CCL 226, Rockville, Md.) and maintained in Eagle's basal medium with Earle's salts (EBME) containing 10% (v/v) fetal bovine serum (FBS, Gibco Laboratories, Chagrin Falls, Ohio) without antibiotics, and sodium bicarbonate (2.2 gl). Cells were seeded at 5×10^4 per 75 cm^2 flask and grown in a humidified incubator containing 5% carbon dioxide in air at 37° C. Cells used in all these experiments were passage between 10-13.
Two-stage transformation assays in C3H10T1/2 cells were performed according to a procedure modified from that described in Mondal et al. (1976) Cancer Res. 36:2254-2260. One thousand cells obtained from freshly confluent flasks were seeded per well in 12-well plate containing 2 ml of medium (12 wells per experimental point). After incubation at 37° C. for three days, MCA or DMBA (2 mg/ml stock solution in DMSO) was added to give final concentrations of 0.25 μg/ml. Carcinogen-containing medium was removed from the growing cultures after 24 hours and cells were rinsed once with PBS before addition of fresh EBME supplemented with 10% FBS and gentamycin (25 μg/ml). […] TPA and test compounds were added to the medium each time the medium was changed. Medium was changed on all plates twice weekly. After confluency was reached, the FBS concentration was reduced to 5% and amphotericin B (fungizone, 1.5 μg/ml) was added to the medium (see Reznikoff et al. (1973) Cancer Res. 33:3239-3249 and Bertram (1979) Cancer Lett. 7:289-298). Subsequent medium changes were performed weekly. Cultures were fixed with methanol and stained with Giemsa at the seventh week. Type II and III transformed foci were scored according to the teachings of Landolph “Transformation Assay of Established Cell Lines: Mechanism and Application,” Eds. Kakunaga et al. (Toronto: Oxford University Press, 1985), at pp. 185-199.

[1] = all-trans-retinyl acetate (0.3 μg/ml)

SMILES	No. of wells foci/total no. of wells (aspirin 200 μM)	Total No. of foci/no. wells scored (aspirin 200 μM)	Total No. type II (aspirin 200 μM)	Total No. type III (aspirin 200 μM)	Wells with foci (%) (aspirin 200 μM)	No. of wells foci/total no. of wells [1]	Total No. of foci/no. wells scored [1]	Total No. type II [1]	Total No. type III [1]	Wells with foci (%) [1] [%]
CC(=O)Oc1ccccc1C(=O)O [aspirin]	0/12	0/12	0	0	0					
CC(=O)OC/C=C(C)/C=C/C=C(C)/C=C/C1=C(C)CCCC1(C)C [all-trans-retinyl acetate]						0/12	0/12	0	0	0
